Assay results from patent publication US20050153943A1, “Methods of simultaneously treating mucositis and fungal infection” (priority 2002, published 2005).

Columns and labels:
[1] = test system: BALB/c 3T3 (CCL-163) cells; assay: 3T3 phototoxicity assay (Neutral Red uptake, with/without UVA); conditions: 5 J/cm^2 UVA vs dark; for PIF 1 (photoirritancy factor, IC50(-UVA)/IC50(+UVA), earlier software): 1 = no measurable phototoxicity, >5 phototoxic potential; for MPE (mean photo effect): <0.1 nonphototoxin, 0.1 to <0.15 probable, >=0.15 clear phototoxin
Rhizopus sp. = assay: Fungal growth on SABHI agar containing CMT (Example 38); assay type: cell-based; conditions: 25 μg/ml, 30° C., growth grade
Procedure: (§1) The following fungi were inoculated onto potato dextrose agar (PDA) from stock cultures and incubated aerobically at 30° C.: Aspergillus [NT] 1022, Penicillium sp. (laboratory isolate), Candida albicans, ATCC 14053, and Rhizopus sp. […] The conidia were suspended in 0.9% saline and the turbidity was adjusted to match a 0.5 MacFarland standard (equivalent to approximately 1.5×10^8 cells). Candida albicans was suspended in saline and adjusted to 0.5 MacFarland in a similar manner. These suspensions were diluted 1:100 in sterile 0.9% saline. SABHI Agar (Difco) pH 7.0 was prepared in 100 ml amounts and sterilized at 121° C. for 15 min. […] SABHI Agar plates of each CMT and SAHBI agar without CMT using dimethylsulphoxide (DMSO) as a control were inoculated with 10 μl of conidia suspension of Aspergillus fumigatus, Penicillium sp. and Rhizopus sp. and 10 μl suspension of Candida albicans prepared as described above. The plates were then incubated aerobically for 24 hour and for 48 hours at 30° C. The results are set forth in Table 1 (24 hr. incubation) and Table 2 (48 hr. incubation). [table]

[2] = test system: Aspergillus fumigatus ATCC 1022; assay: as above; assay type: cell-based; conditions: 25 μg/ml, 30° C., growth grade
Procedure: as §1

[3] = test system: Candida albicans, ATCC 14053; assay: as above; assay type: cell-based; conditions: 25 μg/ml, 30° C., growth grade
Procedure: as §1

[4] = test system: Penicillium sp. (laboratory isolate); assay: as above; assay type: cell-based; conditions: 25 μg/ml, 30° C., growth grade
Procedure: as §1

Molecule | PIF 1 (photoirritancy factor, IC50(-UVA)/IC50(+UVA), earlier software) [1] | MPE (mean photo effect) [1] | Growth at 25 μg/ml compared to control at 24 hrs incubation (Rhizopus sp.) | Growth at 25 μg/ml compared to control at 48 hours (Rhizopus sp.) | Growth at 25 μg/ml compared to control at 24 hrs incubation [2] | Growth at 25 μg/ml compared to control at 48 hours [2] | Growth at 25 μg/ml compared to control at 24 hrs incubation [3] | Growth at 25 μg/ml compared to control at 48 hours [3] | Growth at 25 μg/ml compared to control at 24 hrs incubation [4] | Growth at 25 μg/ml compared to control at 48 hours [4]
2-CONHCH2-pyrrolidin-1-yl-4-dedimthylaminodoxycycline [COL 807] | 40.4 | 0.382 |  |  |  |  |  |  |  | 
CC(=O)Nc1cc(N(C)C)c2c(c1O)C(=O)C1=C(O)C3(O)C(=O)C(C(N)=O)=C(O)CC3CC1C2.O=S(=O)(O)O (centres unmarked) [Example 3, 9-Acetamido-4-dedimethylamino-7-dimethylamino-6-demethyl-6-deoxytetracycline sulfate] |  |  | 3 (25% reduction in growth of colonies compared to control.) | 1 (75% reduction in growth in colonies compared to control.) | 0 (complete inhibition of growth.) | 4 (Level of growth in the absence of anti-fungal agent (control).) | 1 (75% reduction in growth in colonies compared to control.) | 4 (Level of growth in the absence of anti-fungal agent (control).) | 0 (complete inhibition of growth.) | 4 (Level of growth in the absence of anti-fungal agent (control).)
CN(C)c1cc([N+]#N)c(O)c2c1CC1CC3CC(O)=C(C(N)=O)C(=O)C3(O)C(O)=C1C2=O.O=S(=O)([O-])O (centres unmarked) [Example 4, 4-Dedimethylamino-7-dimethylamino-6-demethyl-6-deoxy-9-diazoniumtetracycline sulfate] |  |  | 4 (Level of growth in the absence of anti-fungal agent (control).) | 4 (Level of growth in the absence of anti-fungal agent (control).) | 0 (complete inhibition of growth.) | 1 (75% reduction in growth in colonies compared to control.) | 1 (75% reduction in growth in colonies compared to control.) | 4 (Level of growth in the absence of anti-fungal agent (control).) | 3 (25% reduction in growth of colonies compared to control.) | 0 (complete inhibition of growth.)
CN(C)[C@@H]1C(O)=C(C(N)=O)C(=O)[C@@]2(O)C(O)=C3C(=O)c4c(O)cccc4[C@@](C)(O)[C@H]3C[C@@H]12 [Tetracycline, reference compound] | 5.38 | 0.340 |  |  |  |  |  |  |  | 
